Experimental data from paper PMC3207004 (Clinical cancer research : an official journal of the …, 2011).
Entries after “also recorded” stand apart in the source; their conditions may differ.

Columns and labels:
[1] = cited from earlier work
[2] = test system: advanced solid tumors and lymphomas; assay: Assessment of response; format: in vivo, human
[3] = Continuous EKG monitoring, corrected QT interval; format: in vivo, human; details: days 1 and 15 of cycle 1
[4] = no reference given, cited from earlier work
[5] = cited from earlier work; remark: listed apart in the source
[6] = test system: Hsp70 levels in peripheral blood mononuclear cells (PBMCs); assay: Hsp70 induction in peripheral blood by western blot; format: in vivo, human
[7] = Comprehensive ophthalmologic evaluation of patients on study; format: in vivo, human
[8] = cited from earlier work; remark: listed apart in the source
[9] = Plasma pharmacokinetics of PF-04928473 after oral PF-04929113; format: in vivo, human; details: patients
[10] = human, in vivo
[11] = Phase I dose-escalation study: adverse events, DLT and tolerability in patients; details: drug-related; 33 patients
[12] = 18 days after initiation of cycle 3

CC1(C)CC(=O)c2c(C(F)(F)F)nn(-c3ccc(C(N)=O)c(N[C@H]4CC[C@H](OC(=O)CN)CC4)c3)c2C1 [PF-04929113]
Oral bioavailability [1]: orally bioavailable
Median duration of disease stabilization ([2]; 15 patients): 16 weeks
Objective responses ([2]; 32 evaluable patients): no objective tumor responses
Anti-tumor activity as a single-agent ([2]; twice weekly continuous dosing): modest anti-tumor activity
Effect on the corrected QT interval [3]: did not reveal any effect
Patients with visual symptoms (nictalopia and blurred vision) ([4]; another phase I study, daily administration): 4 out of 20 and Four out of 20
Patients who complained of blurred vision ([4]; daily administration, grade 1): one
Patients who complained of nictalopia ([4]; daily administration, grade 1): Three
Onset of visual event after beginning the drug ([4]; in most cases, daily administration): ≤ 2 weeks
DLTs with daily administration [4]: 3 cases of grade 3 diarrhea, 1 case of grade 2 dehydration and grade 3 gastrointestinal hemorrhage and 1 case of grade 3 visual disturbance and grade 3 diarrhea
Water solubility [5]: water soluble
Dose at or above which an increase in Hsp70 levels was seen in all patients ([6]; PBMCs): ≥ 33 mg/m^2/day
Patients with increased Hsp70 protein level at day 15 and/or day 16 ([6]; PBMCs, compared to baseline): 16 out of 19
Relation of Hsp70 induction to PK parameters (Cmax and AUCinf of each cohort) ([6]; fold increase at 24h versus baseline): linear correlation
Inhibition of Hsp90 in patients (PD studies) ([6]; in vivo): confirmed inhibition of Hsp90
lowest biologically effective dose ([6]; orally twice weekly, based on PD data): 33 mg/m^2
Level of Hsp70 induction as a function of dose ([6]; ≤ 44 vs > 44 mg/m^2/dose): greater at higher dose levels
Drug-related ocular toxicity in this study ([7]; oral twice weekly): no clinically significant drug-related ocular toxicity was seen in this study
Ocular examination findings in single patients ([7]; three patients at 77, 133 and 177 mg/m^2, after 8, 10 and 28 cycles): slightly prolonged cone-rod break in the right eye but the ERG was normal; also recorded: normal eye exam; also recorded: slightly prolonged cone-rod break in one patient
Retinal damage in animal studies ([8]; canine model, reports, no reference given): irreversible retinal damage
Retinal toxicity ([8]; dog, in vivo): evidence of retinal toxicity
Absorption following oral administration [9]: rapidly absorbed
ALT elevation, Grade 1 [10]: 5 (15) Number of patients (%)
ALT elevation, Grade 2 [10]: 1 (3) Number of patients (%)
ALT elevation, Grade 3 [10]: 0 Number of patients (%)
ALT elevation, Grade 4 [10]: 0 Number of patients (%)
AST elevation, Grade 1 [10]: 3 (9) Number of patients (%)
AST elevation, Grade 2 [10]: 2 (6) Number of patients (%)
AST elevation, Grade 3 [10]: 1 (3) Number of patients (%)
AST elevation, Grade 4 [10]: 0 Number of patients (%)
Abdominal pain, Grade 1 [10]: 1 (3) Number of patients (%)
Abdominal pain, Grade 2 [10]: 0 Number of patients (%)
Abdominal pain, Grade 3 [10]: 0 Number of patients (%)
Abdominal pain, Grade 4 [10]: 0 Number of patients (%)
Alkaline phosphatase elevation, Grade 1 [10]: 0 Number of patients (%)
Alkaline phosphatase elevation, Grade 2 [10]: 2 (6) Number of patients (%)
Alkaline phosphatase elevation, Grade 3 [10]: 0 Number of patients (%)
Alkaline phosphatase elevation, Grade 4 [10]: 0 Number of patients (%)
Anemia, Grade 1 [10]: 2 (6) Number of patients (%)
Anemia, Grade 2 [10]: 3 (9) Number of patients (%)
Anemia, Grade 3 [10]: 0 Number of patients (%)
Anemia, Grade 4 [10]: 0 Number of patients (%)
Anorexia, Grade 1 [10]: 2 (6) Number of patients (%)
Anorexia, Grade 2 [10]: 1 (3) Number of patients (%)
Anorexia, Grade 3 [10]: 0 Number of patients (%)
Anorexia, Grade 4 [10]: 0 Number of patients (%)
Arthritis (non-septic), Grade 1 [10]: 0 Number of patients (%)
Arthritis (non-septic), Grade 2 [10]: 1 (3) Number of patients (%)
Arthritis (non-septic), Grade 4 [10]: 0 Number of patients (%)
Constipation, Grade 1 [10]: 1 (3) Number of patients (%)
Constipation, Grade 2 [10]: 0 Number of patients (%)
Constipation, Grade 3 [10]: 0 Number of patients (%)
Constipation, Grade 4 [10]: 0 Number of patients (%)
Cough, Grade 1 [10]: 1 (3) Number of patients (%)
Cough, Grade 2 [10]: 0 Number of patients (%)
Cough, Grade 3 [10]: 0 Number of patients (%)
Cough, Grade 4 [10]: 0 Number of patients (%)
Creatinine phosphokinase elevation, Grade 1 [10]: 1 (3) Number of patients (%)
Creatinine phosphokinase elevation, Grade 2 [10]: 0 Number of patients (%)
Creatinine phosphokinase elevation, Grade 3 [10]: 0 Number of patients (%)
Creatinine phosphokinase elevation, Grade 4 [10]: 0 Number of patients (%)
Diarrhea, Grade 1 [10]: 4 (12) Number of patients (%)
Diarrhea, Grade 2 [10]: 0 Number of patients (%)
Diarrhea, Grade 3 [10]: 3 (9) Number of patients (%)
Diarrhea, Grade 4 [10]: 0 Number of patients (%)
Dose Level at which grade 3 AST elevation occurred [10]: 77 mg/m^2
Dose Level at which grade 3 Non-septic arthritis occurred [10]: 16 mg/m^2
Dose Level at which grade 3 Thrombocytopenia occurred [10]: 177 mg/m^2
Dysgeusia, Grade 1 [10]: 1 (3) Number of patients (%)
Dysgeusia, Grade 2 [10]: 1 (3) Number of patients (%)
Dysgeusia, Grade 3 [10]: 0 Number of patients (%)
Dysgeusia, Grade 4 [10]: 0 Number of patients (%)
Dyspepsia, Grade 1 [10]: 1 (3) Number of patients (%)
Dyspepsia, Grade 2 [10]: 0 Number of patients (%)
Dyspepsia, Grade 3 [10]: 0 Number of patients (%)
Dyspepsia, Grade 4 [10]: 0 Number of patients (%)
Edema, Grade 1 [10]: 0 Number of patients (%)
Edema, Grade 2 [10]: 1 (3) Number of patients (%)
Edema, Grade 3 [10]: 0 Number of patients (%)
Edema, Grade 4 [10]: 0 Number of patients (%)
Emesis, Grade 1 [10]: 2 (6) Number of patients (%)
Emesis, Grade 2 [10]: 1 (3) Number of patients (%)
Emesis, Grade 3 [10]: 0 Number of patients (%)
Emesis, Grade 4 [10]: 0 Number of patients (%)
Fatigue, Grade 1 [10]: 4 (12) Number of patients (%)
Fatigue, Grade 2 [10]: 2 (6) Number of patients (%)
Fatigue, Grade 3 [10]: 0 Number of patients (%)
Fatigue, Grade 4 [10]: 0 Number of patients (%)
Flu-like symptoms, Grade 1 [10]: 1 (3) Number of patients (%)
Flu-like symptoms, Grade 2 [10]: 0 Number of patients (%)
Flu-like symptoms, Grade 3 [10]: 0 Number of patients (%)
Flu-like symptoms, Grade 4 [10]: 0 Number of patients (%)
Hyponatremia, Grade 1 [10]: 1 (3) Number of patients (%)
Hyponatremia, Grade 2 [10]: 0 Number of patients (%)
Hyponatremia, Grade 3 [10]: 0 Number of patients (%)
Hyponatremia, Grade 4 [10]: 0 Number of patients (%)
Hypophosphatemia, Grade 1 [10]: 0 Number of patients (%)
Hypophosphatemia, Grade 2 [10]: 1 (3) Number of patients (%)
Hypophosphatemia, Grade 3 [10]: 0 Number of patients (%)
Hypophosphatemia, Grade 4 [10]: 0 Number of patients (%)
Joint pain, Grade 1 [10]: 1 (3) Number of patients (%)
Joint pain, Grade 2 [10]: 1 (3) Number of patients (%)
Joint pain, Grade 3 [10]: 0 Number of patients (%)
Joint pain, Grade 4 [10]: 0 Number of patients (%)
Leukopenia, Grade 1 [10]: 2 (6) Number of patients (%)
Leukopenia, Grade 2 [10]: 0 Number of patients (%)
Leukopenia, Grade 3 [10]: 0 Number of patients (%)
Leukopenia, Grade 4 [10]: 0 Number of patients (%)
Lymphopenia, Grade 1 [10]: 2 (6) Number of patients (%)
Lymphopenia, Grade 2 [10]: 6 (18) Number of patients (%)
Lymphopenia, Grade 3 [10]: 0 Number of patients (%)
Lymphopenia, Grade 4 [10]: 0 Number of patients (%)
Muscle pain, Grade 1 [10]: 0 Number of patients (%)
Muscle pain, Grade 2 [10]: 1 (3) Number of patients (%)
Muscle pain, Grade 3 [10]: 0 Number of patients (%)
Muscle pain, Grade 4 [10]: 0 Number of patients (%)
Nausea, Grade 1 [10]: 8 (24) Number of patients (%)
Nausea, Grade 2 [10]: 1 (3) Number of patients (%)
Nausea, Grade 3 [10]: 0 Number of patients (%)
Nausea, Grade 4 [10]: 0 Number of patients (%)
Neutropenia, Grade 1 [10]: 1 (3) Number of patients (%)
Neutropenia, Grade 2 [10]: 0 Number of patients (%)
Neutropenia, Grade 3 [10]: 0 Number of patients (%)
Neutropenia, Grade 4 [10]: 0 Number of patients (%)
Thrombocytopenia, Grade 1 [10]: 4 (12) Number of patients (%)
Thrombocytopenia, Grade 2 [10]: 0 Number of patients (%)
Thrombocytopenia, Grade 3 [10]: 1 (3) Number of patients (%)
Thrombocytopenia, Grade 4 [10]: 0 Number of patients (%)
Weight loss, Grade 1 [10]: 1 (3) Number of patients (%)
Weight loss, Grade 2 [10]: 0 Number of patients (%)
Weight loss, Grade 3 [10]: 0 Number of patients (%)
Weight loss, Grade 4 [10]: 0 Number of patients (%)
grade 3 AEs: AST elevation [10]: 3%
grade 3 AEs: diarrhea [10]: 9%
grade 3 AEs: non-septic arthritis [10]: 3%
grade 3 AEs: thrombocytopenia [10]: 3%
Arthritis (non-septic), Grade 3 [10, 12]: 1 (3) Number of patients (%)
Dose at which the DLT (non-septic arthritis) was noted [10, 12]: 16 mg/m^2/dose
Grade 4 adverse events or deaths [11]: No grade 4 adverse events (AEs) were seen; also recorded: No drug-related grade 4 adverse events or deaths were seen
